As a reminder, the clearance is a measure of how efficiently the substance is removed, as volume per time.

SMILES strings stand for the structures.

The target of series [1] is T1, Cytochrome P450 3A4 (Homo sapiens, UniProt P08684). Kind of series: Activity of recombinant human CYP3A4 expressed in microsomes isolated from baculovirus infected insect cell assessed as enzyme-mediated 2-(2-((R)-3-((1-(carboxymethyl)cyclopropyl)methylthio)-3-(3-(2-(7-chloroquinolin-2-yl)vinyl)phenyl)propyl)phenyl)-2-hydroxypropanoic acid formation at 0.02 uM after 30 mins by LC-MS analysis. Conditions: 0.5 h. It counts as ADME.

For series [2], the target named is T2, Cytochrome P450 2C9 (Homo sapiens, UniProt P11712). As to the kind of experiment: Activity of recombinant human CYP2C9 expressed in microsomes isolated from baculovirus infected insect cell assessed as enzyme-mediated 2-(2-((R)-3-((1-(carboxymethyl)cyclopropyl)methylthio)-3-(3-(2-(7-chloroquinolin-2-yl)vinyl)phenyl)propyl)phenyl)-2-hydroxypropanoic acid formation at 0.02 uM after 30 mins by LC-MS analysis. In kind it is ADME. To be noted: 0.5 h.

The target in the next series is Cytochrome P450 2D6 (Homo sapiens, UniProt P10635). As to the kind of experiment: Activity of recombinant human CYP2D6 expressed in microsomes isolated from baculovirus infected insect cell assessed as enzyme-mediated 2-(2-((R)-3-((1-(carboxymethyl)cyclopropyl)methylthio)-3-(3-(2-(7-chloroquinolin-2-yl)vinyl)phenyl)propyl)phenyl)-2-hydroxypropanoic acid formation at 1 uM after 30 mins by LC-MS analysis. In kind it is ADME. To be noted: 0.5 h.

For a further series, the target named is T3, Cytochrome P450 2C8 (Homo sapiens, UniProt P10632).
T3 sequence (P10632 whole entry): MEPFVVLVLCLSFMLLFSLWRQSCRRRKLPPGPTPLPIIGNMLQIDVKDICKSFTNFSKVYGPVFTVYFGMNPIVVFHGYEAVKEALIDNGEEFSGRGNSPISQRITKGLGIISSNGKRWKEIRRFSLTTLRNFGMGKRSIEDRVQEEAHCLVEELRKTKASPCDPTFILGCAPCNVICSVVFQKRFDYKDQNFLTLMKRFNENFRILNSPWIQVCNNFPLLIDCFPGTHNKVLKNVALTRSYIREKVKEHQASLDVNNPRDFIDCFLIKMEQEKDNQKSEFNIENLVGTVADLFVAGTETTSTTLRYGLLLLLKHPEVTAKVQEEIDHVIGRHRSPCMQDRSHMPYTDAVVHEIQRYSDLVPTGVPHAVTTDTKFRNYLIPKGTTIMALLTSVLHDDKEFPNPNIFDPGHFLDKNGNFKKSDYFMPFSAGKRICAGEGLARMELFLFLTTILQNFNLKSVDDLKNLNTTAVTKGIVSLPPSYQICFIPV
Kind of series: Activity of recombinant human CYP2C8 expressed in microsomes isolated from baculovirus infected insect cell assessed as enzyme-mediated compound formation treated with montelukast at 0.02 to 1 uM after 60 mins by LC-MS analysis. It counts as ADME. To be noted: 1 h.

The target of a further series is T4, Cytochrome P450 1A2 (Homo sapiens, UniProt P05177).
T4 sequence (P05177 whole entry): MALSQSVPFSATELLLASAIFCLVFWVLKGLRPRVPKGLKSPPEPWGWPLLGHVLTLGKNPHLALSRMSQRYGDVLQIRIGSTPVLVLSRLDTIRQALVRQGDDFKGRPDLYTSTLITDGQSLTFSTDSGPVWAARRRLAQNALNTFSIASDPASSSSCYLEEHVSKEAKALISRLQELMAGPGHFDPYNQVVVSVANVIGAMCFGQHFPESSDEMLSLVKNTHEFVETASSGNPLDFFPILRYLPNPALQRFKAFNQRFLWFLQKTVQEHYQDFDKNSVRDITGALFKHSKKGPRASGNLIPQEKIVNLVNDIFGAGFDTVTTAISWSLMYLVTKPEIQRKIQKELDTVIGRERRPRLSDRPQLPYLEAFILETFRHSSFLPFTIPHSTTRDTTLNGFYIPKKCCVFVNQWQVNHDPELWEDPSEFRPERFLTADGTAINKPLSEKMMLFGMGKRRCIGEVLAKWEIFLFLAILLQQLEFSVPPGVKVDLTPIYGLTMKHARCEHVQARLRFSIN
As to the kind of experiment: Activity of recombinant human CYP1A2 expressed in microsomes isolated from baculovirus infected insect cell assessed as enzyme-mediated 2-(2-((R)-3-((1-(carboxymethyl)cyclopropyl)methylthio)-3-(3-(2-(7-chloroquinolin-2-yl)vinyl)phenyl)propyl)phenyl)-2-hydroxypropanoic acid formation at 1 uM after 30 mins by LC-MS analysis. Conditions: 0.5 h. In kind it is ADME.

The target of series [3] is T2, Cytochrome P450 2C9. As to the kind of experiment: Activity of recombinant human CYP2C9 expressed in microsomes isolated from baculovirus infected insect cell assessed as enzyme-mediated compound formation treated with montelukast at 1 uM after 60 mins by LC-MS analysis. To be noted: 1 h. In kind it is ADME.
A further series concerns the target Cytochrome P450 3A5 (Homo sapiens, UniProt P20815). As to the kind of experiment: Activity of recombinant human CYP3A5 expressed in microsomes isolated from baculovirus infected insect cell assessed as enzyme-mediated 2-(2-((R)-3-((1-(carboxymethyl)cyclopropyl)methylthio)-3-(3-(2-(7-chloroquinolin-2-yl)vinyl)phenyl)propyl)phenyl)-2-hydroxypropanoic acid formation at 1 uM after 30 mins by LC-MS analysis. It counts as ADME. To be noted: 0.5 h.

The subject of series [4] is Liver microsome. As to the kind of experiment: Drug metabolism in human liver microsomes assessed as 2-(1-(((1R)-1-(3-(2-(7-chloroquinolin-2-yl)vinyl)phenyl)-3-(2-(1,2-dihydroxypropan-2-yl)phenyl)propylthio)methyl)cyclopropyl)acetic acid formation at 0.05 uM after 15 mins by LC-MS analysis in presence of CYP2C8 inhibitor gemfibrozil 1-O-beta glucuronide and CYP2C9 inhibitor sulfaphenazole. In kind it is ADME. Conditions: 0.25 h. Background: Liver microsomes are vesicles of endoplasmic reticulum, rich in cytochrome P450 enzymes.

Series [5] addresses T1, Cytochrome P450 3A4. Kind of series: Activity of recombinant human CYP3A4 expressed in microsomes isolated from baculovirus infected insect cell assessed as enzyme-mediated compound depletion at 0.02 uM after 30 mins by LC-MS analysis. Conditions: 0.5 h.
Series [6] concerns Liver microsome. Kind of series: Drug metabolism in human liver microsomes assessed as (R)-2-(1-((1-(3-(2-(7-chloroquinolin-2-yl)vinyl)phenyl)-3-(4-hydroxy-2-(2-hydroxypropan-2-yl)phenyl)propylthio)methyl)cyclopropyl)acetic acid formation at 0.4 uM after 15 mins by LC-MS analysis in presence of CYP1A2 inhibitor furafylline, CYP2B6 inhibitor clopidogrel, CYP2D6 inhibitor quinidine and CYP2C9 inhibitor sulfaphenazole. In kind it is ADME. To be noted: 0.25 h.

The nature of series [7]: Plasma clearance in human at 3 to 18 mg, iv. It counts as ADME, organism-based.
Series [8] has as its system Liver microsome. As to the kind of experiment: Drug metabolism in human liver microsomes assessed as 2-(1-(((1R)-1-(3-(2-(7-chloroquinolin-2-yl)vinyl)phenyl)-3-(2-(1,2-dihydroxypropan-2-yl)phenyl)propylthio)methyl)cyclopropyl)acetic acid formation at 0.1 uM after 12 mins by LC-MS analysis in presence of 2-(1-(((S)-1-(3-(2-(7-chloroquinolin-2-yl)vinyl)phenyl)-3-(2-(2-hydroxypropan-2-yl)phenyl)propylsulfinyl)methyl)cyclopropyl)acetic acid. In kind it is ADME. To be noted: 0.2 h.

The subject of series [9] is Liver microsome. Kind of series: Drug metabolism in human liver microsomes assessed as 2-(1-(((1R)-1-(3-(2-(7-chloroquinolin-2-yl)vinyl)phenyl)-3-hydroxy-3-(2-(2-hydroxypropan-2-yl)phenyl)propylthio)methyl)cyclopropyl)acetic acid formation at 0.4 uM after 15 mins by LC-MS analysis in presence of CYP1A2 inhibitor furafylline, CYP2B6 inhibitor clopidogrel, CYP2D6 inhibitor quinidine and CYP2C9 inhibitor sulfaphenazole. Conditions: 0.25 h. In kind it is ADME.

The subject of a further series is Plasma. As to the kind of experiment: Fraction unbound in human plasma. It counts as ADME, cell-free.
Series [10] deals with Liver microsome. As to the kind of experiment: Drug metabolism in human liver microsomes at 1 to 10 uM preincubated for 3 mins followed by beta-NADPH addition by LC-MS analysis. In kind it is ADME. To be noted: TDE = time-dependent effect.

T1 sequence (P08684 whole entry): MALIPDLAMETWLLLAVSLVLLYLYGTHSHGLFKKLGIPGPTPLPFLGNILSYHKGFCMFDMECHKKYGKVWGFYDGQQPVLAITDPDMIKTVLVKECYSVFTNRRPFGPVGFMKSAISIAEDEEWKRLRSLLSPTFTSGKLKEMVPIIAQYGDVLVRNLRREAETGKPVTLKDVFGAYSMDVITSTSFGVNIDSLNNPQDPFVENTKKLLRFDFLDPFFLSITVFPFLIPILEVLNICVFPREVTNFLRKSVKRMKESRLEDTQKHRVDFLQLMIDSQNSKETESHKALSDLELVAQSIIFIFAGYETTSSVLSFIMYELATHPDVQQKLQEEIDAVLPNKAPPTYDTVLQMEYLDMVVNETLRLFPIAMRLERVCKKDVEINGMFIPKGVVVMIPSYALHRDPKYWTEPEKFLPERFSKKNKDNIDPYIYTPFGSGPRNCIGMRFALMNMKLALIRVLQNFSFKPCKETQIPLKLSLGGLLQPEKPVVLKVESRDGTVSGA
T2 sequence (P11712 whole entry): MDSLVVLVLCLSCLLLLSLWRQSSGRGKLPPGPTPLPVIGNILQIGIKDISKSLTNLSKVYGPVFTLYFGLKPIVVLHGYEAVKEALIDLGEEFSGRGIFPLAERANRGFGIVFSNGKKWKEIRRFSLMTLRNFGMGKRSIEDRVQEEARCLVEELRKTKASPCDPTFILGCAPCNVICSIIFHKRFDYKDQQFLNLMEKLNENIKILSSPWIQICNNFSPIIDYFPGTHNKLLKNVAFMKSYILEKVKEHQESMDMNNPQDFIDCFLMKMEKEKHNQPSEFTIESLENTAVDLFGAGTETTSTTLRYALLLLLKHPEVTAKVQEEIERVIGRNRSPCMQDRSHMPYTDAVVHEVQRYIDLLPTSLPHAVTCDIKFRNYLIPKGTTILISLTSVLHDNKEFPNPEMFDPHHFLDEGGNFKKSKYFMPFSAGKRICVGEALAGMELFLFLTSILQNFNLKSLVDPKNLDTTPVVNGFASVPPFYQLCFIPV
Cytochrome P450 3A5, sequence (P20815 whole entry): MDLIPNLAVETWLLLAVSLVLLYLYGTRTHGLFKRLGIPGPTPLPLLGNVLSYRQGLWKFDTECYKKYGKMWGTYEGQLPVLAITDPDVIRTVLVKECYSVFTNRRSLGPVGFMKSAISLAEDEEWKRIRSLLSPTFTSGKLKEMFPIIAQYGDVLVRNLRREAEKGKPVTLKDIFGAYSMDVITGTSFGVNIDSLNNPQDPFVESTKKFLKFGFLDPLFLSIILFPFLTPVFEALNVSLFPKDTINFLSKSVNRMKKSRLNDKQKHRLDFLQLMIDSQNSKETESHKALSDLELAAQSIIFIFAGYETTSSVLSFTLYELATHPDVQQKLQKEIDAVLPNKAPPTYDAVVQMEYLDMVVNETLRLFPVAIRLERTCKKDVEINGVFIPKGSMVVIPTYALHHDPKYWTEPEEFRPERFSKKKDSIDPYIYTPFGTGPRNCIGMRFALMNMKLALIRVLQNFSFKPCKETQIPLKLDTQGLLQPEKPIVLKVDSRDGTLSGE
Cytochrome P450 2D6, sequence (P10635 whole entry): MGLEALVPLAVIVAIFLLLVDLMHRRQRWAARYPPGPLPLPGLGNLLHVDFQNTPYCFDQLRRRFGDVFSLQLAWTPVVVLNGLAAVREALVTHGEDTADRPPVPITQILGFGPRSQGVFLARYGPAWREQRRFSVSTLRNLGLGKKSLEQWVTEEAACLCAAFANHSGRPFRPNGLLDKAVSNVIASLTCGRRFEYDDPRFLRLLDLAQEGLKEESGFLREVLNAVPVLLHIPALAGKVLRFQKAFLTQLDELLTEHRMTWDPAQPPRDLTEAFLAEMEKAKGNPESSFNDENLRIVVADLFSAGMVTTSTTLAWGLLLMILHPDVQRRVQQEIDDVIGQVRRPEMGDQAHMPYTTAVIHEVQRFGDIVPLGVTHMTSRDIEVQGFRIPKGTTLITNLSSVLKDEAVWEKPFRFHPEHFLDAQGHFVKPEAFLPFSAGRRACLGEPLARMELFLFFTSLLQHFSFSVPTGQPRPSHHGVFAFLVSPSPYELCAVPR

Consider `CC(O)(CO)c1ccccc1CC[C@@H](SCC1(CC(=O)O)CC1)c1cccc(/C=C/c2ccc3ccc(Cl)cc3n2)c1` (stereo not given in full), for which the Drug metabolism entry at Cytochrome P450 3A4 [1] is reported as “metabolite_not_detected”; at Cytochrome P450 2C9 [2], “metabolite_not_detected”; at Cytochrome P450 2D6 it was “metabolite_not_detected”; at Cytochrome P450 2C8, “metabolite_detected”; on Cytochrome P450 1A2 it was “metabolite_not_detected”; on Cytochrome P450 2C9 [3] it was “metabolite_detected”. Besides, the Drug metabolism result at Cytochrome P450 3A5 was “metabolite_not_detected”.

`CC(C)(O)c1ccccc1CC[C@@H](SCC1(CC(=O)[O-])CC1)c1cccc(/C=C/c2ccc3ccc(Cl)cc3n2)c1.[Na+]` [MONTELUKAST SODIUM]: the Drug metabolism result with Liver microsome [4] is “metabolite_not_detected”; on Cytochrome P450 3A4 [5] it was “metabolite_detected”; in the series on Liver microsome [6] it was “metabolite_detected”; in the series on Liver microsome [8] it was “metabolite_not_detected”; with Liver microsome [9], “metabolite_detected”; in the series with Liver microsome [10] it was “tde”. Further, the clearance in series [7] worked out at 0.578 mL/min/kg. This molecule also registered a Fu with Plasma of 0.4%.
